Measured values as given in US20040241114A1, “Hair Care and Nail Care Compositions Based on Ion-Pair Delivery System for Gender and Ethnic Selective Applications” (priority 2003, published 2004).

Legend:
Assay type in all cases: physicochemical
[1] = Stability of water solution
pH of 1% water solution = assay: pH of 1% water solution
Solubility in water = assay: Solubility in water
Source text: The ion-pair compositions thus formed are not just physical mixtures of the two compositions that are combined in an ion-pair mode to form such ion-pair compositions. Such ion-pair compositions are discreet chemical entities. For example, the combination of niacinamide with N-Acetyl-Cysteine results in the formation of ion-pair complex, Niacinamide N-Acetyl Cysteinate. […] Niacinamide N-Acetyl-Cysteinate, the ion-pair that is produced from the combination of the above two compositions is a new ingredient properties of which are very different from that of the above two compositions, which shall be described elsewhere.

stability of water solution [1] | pH of 1% water solution (pH of 1% water solution) | solubility in water (Solubility in water) | Compound
poor | 3.5 | > 20% | CC(=O)N[C@@H](CS)C(=O)O [N-Acetyl-Cysteine]
good | 6.3 | 50% | NC(=O)c1cccnc1 [niacinamide]
